The text below walks through data of publication PMC7559477, “Zinc Binding by Histatin 5 Promotes Fungicidal Membrane Disruption in C. albicans and C. glabrata” (Journal of Fungi, 2020).

One data set concerns C. albicans cells. The data set can be described thus: Peptide uptake (cell association) assay. The settings on record: 0.44 fmol/cell, 30 °C, up to 20 min, initial binding subtracted. It is filed as cell-based, Candida albicans. The method, then: Experiments were carried out with Candida albicans strain SC5314 [41] or Candida glabrata strain Cg931010 [42]. Liquid and solid pre-mixed yeast-peptone-dextrose media was used to grow yeast cells (YPD and YPD-Agar, respectively) (Fisher Scientific, Waltham, MA, USA). All media was prepared in deionized water with 50 µg/ mL supplemented uridine (Sigma Aldrich, St. Louis, MO, USA), and sterilized by autoclave. Metal salt solutions of ZnSO4·7H2O (Fisher Scientific, Waltham, MA, USA) were made in High-performance liquid chromatography (HPLC)-grade water (JT Baker, Phillipsburg, NJ, USA) and used within one day of preparation. […]
C. albicans cells were added to pre-incubated peptides (30 min, 20 °C) alone or at a 1 Zn^2+:2 peptide ratio, and additionally to Hst 5 at a 3 Zn^2+:2 peptide ratio, using a dose of 0.44 fmol peptide/cell. After cells were added, samples were vortexed briefly and immediately centrifuged for 2 min at 6000× g at 20 °C, after which 10 µL supernatant was removed to new tubes and stored at 4 °C for quantification. […] Protein concentration in supernatant samples was measured by NanoDrop. […] Significance of differences in uptake rate and binding between zinc added and zinc free samples were calculated using two-way ANOVA with Sidak’s multiple comparisons test. […]

The nature of data set [1]: Peptide solubility assay (Zn2+-induced precipitation from NaPB). It is filed as physicochemical. The settings on record: 15 µM peptide in 10 mM NaPB pH 7.4, 30 min at room temperature (20 °C), centrifuged 20000 x g 10 min, supernatant by NanoDrop A205, triplicate, averaged. As to the method:
Aggregation was quantified by measuring peptide precipitation from NaPB. Molar ratios of [0:0], [0:1], [1:2], [1:1], [2:1], [3:1], and [4:1] ZnSO4 to 15 µM peptide were used and samples were incubated for 30 min at room temperature (20 °C) before centrifugation. Samples were spun at 20000× g for 10 min at room temperature and the protein concentrations of the supernatants were subsequently measured using microvolume spectrophotometry (NanoDrop One, Thermofisher Scientific, Waltham, MA, USA) Data were cleaned using robust regression and outlier removal (ROUT) with Q set to 1%. Cleaned data were baseline corrected by subtracting peptide- and metal- free NaPB (0:0). […] Percent aggregation out of total peptide added was calculated. […] Statistical differences between the peptides at each metal salt titration were calculated using two-way ANOVA with Tukey’s multiple comparison test.
Figure 2 The three Hsts are all soluble at a physiological ratio of Zn^2+ to peptide but differ in relative Zn^2+ affinity. […] Peptide solubility was measured via NanoDrop A205 after removal of insoluble aggregates by centrifugation. […] Absorbance of Zincon at 621 nm was measured as an inverse indicator of relative peptide affinity, as Zincon has a blue color when bound to zinc. […]

Where no end group is shown, it is not given here.

Consider QQQAKRHHGYKRKFQQQQQSHRGY [Hst 5ΔMB], for which the “total uptake with added Zn2+” value in the data set with C. albicans cells (1 Zn2+:2 peptide, 10 mM NaPB pH 7.4, words = versus peptide alone) was 90 pmol. In the data set with C. albicans cells (peptide alone, 10 mM NaPB pH 7.4, supernatant by NanoDrop, at least three days, averaged), this sequence returned a total uptake of 370 pmol. Besides, the precipitation of peptide in data set [1] (1:1 Zn2+:peptide) is 14%; in data set [1] (4:1 Zn2+:peptide), 25%.
